Laboratory results: PMC10154247, “Complex regulation in a Comamonas platform for diverse aromatic carbon metabolism” (Nature Chemical Biology, 2023)

Tests used:
[1] = target: T1, PEPs (PEP synthase) (Comamonas testosteroni, UniProt B7X5R8); experiment: pyruvate consumption by HPLC-RI; format: biochemical; conditions: allosteric inhibitor, 2 or 5 mM (printed as 'up to'); 1 mM pyruvate, 1.5 mM ATP, 5 mM MgCl2, pH 7.5, 30 °C
T1 construct: gene CtesDRAFT_PD3828; N-terminal His tag with TEV site, start codon removed; recombinant in E. coli BL21 (DE3), Ni-NTA
T1 sequence (B7X5R8 2-796): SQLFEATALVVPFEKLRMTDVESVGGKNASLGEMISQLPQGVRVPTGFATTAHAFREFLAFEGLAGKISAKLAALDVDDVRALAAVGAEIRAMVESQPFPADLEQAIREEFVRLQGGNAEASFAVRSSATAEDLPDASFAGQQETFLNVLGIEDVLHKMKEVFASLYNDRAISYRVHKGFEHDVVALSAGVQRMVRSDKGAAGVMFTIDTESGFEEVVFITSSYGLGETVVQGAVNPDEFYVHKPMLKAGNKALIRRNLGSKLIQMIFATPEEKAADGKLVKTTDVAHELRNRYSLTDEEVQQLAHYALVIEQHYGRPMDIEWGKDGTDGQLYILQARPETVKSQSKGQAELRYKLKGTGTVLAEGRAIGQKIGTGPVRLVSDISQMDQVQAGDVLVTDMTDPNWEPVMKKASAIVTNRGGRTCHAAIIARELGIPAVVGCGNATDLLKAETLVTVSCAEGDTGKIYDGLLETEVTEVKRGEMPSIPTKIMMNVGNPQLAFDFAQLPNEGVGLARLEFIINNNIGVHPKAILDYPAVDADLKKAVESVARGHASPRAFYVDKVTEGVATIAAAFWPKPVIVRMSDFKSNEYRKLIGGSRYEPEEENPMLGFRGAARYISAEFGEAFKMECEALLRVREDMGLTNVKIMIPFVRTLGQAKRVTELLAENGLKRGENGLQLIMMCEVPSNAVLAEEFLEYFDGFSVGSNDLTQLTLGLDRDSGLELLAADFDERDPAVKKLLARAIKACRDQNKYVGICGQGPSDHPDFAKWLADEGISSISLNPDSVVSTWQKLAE

[2] = target: T2, ME-2 (Comamonas testosteroni, UniProt B7X1D4); experiment: NADH formation at […] nm; conditions: 0.5 and 2 mM, 1 mM L-malate, 0.5 mM NAD+, 5 mM MnCl2, pH 7.5, 30 °C
T2 construct: gene CtesDRAFT_PD5092
T2 sequence (B7X1D4 2-769): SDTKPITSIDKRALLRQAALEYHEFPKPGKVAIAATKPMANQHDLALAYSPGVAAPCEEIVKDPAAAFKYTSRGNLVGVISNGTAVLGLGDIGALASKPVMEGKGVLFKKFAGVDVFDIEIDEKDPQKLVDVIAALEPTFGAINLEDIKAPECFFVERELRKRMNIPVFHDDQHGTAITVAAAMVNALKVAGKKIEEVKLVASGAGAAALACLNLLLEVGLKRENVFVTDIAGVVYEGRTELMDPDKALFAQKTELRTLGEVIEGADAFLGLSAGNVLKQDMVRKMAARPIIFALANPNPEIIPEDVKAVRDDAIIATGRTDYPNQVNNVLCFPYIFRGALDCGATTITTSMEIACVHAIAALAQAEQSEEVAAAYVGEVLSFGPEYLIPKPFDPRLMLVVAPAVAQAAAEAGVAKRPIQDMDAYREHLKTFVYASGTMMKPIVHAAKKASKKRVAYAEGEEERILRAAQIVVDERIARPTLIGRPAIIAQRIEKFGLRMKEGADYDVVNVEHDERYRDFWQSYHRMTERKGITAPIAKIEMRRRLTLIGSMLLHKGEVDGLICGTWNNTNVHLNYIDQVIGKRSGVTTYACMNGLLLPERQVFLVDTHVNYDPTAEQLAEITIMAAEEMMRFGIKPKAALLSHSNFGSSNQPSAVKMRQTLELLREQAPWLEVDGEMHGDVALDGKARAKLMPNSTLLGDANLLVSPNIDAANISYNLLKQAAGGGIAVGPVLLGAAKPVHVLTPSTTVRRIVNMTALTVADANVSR

[3] = target: T3, ME-1 (Comamonas testosteroni, UniProt B7WXG5); experiment: NADPH formation at […] nm; conditions: allosteric activator, 0.5 and 2 mM; 1 mM L-malate, 0.5 mM NADP+, 5 mM MnCl2, pH 7.5, 30 °C
T3 construct: gene CtesDRAFT_PD0934
T3 sequence (B7WXG5 2-765): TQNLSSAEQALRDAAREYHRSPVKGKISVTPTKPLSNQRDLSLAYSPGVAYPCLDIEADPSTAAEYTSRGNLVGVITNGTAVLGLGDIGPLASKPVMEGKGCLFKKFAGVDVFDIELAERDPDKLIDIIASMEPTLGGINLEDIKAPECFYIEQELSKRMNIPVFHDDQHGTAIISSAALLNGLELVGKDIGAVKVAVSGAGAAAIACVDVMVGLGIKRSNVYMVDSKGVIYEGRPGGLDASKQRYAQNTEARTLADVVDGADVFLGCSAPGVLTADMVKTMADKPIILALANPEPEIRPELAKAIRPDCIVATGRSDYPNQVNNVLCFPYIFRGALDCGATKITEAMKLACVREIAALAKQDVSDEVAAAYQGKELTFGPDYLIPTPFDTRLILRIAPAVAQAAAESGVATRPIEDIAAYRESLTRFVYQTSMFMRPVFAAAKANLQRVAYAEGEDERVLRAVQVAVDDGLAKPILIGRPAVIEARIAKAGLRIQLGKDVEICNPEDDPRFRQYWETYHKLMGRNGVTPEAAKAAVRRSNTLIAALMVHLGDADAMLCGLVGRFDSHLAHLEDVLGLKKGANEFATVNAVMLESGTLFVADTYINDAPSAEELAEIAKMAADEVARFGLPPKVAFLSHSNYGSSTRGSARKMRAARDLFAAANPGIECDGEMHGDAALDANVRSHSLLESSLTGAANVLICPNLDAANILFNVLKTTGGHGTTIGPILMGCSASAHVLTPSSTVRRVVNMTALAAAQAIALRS

[4] = target: T4, Mdh (Comamonas testosteroni, UniProt A0A096F047); experiment: NAD(P)H oxidation at […] nm; format: biochemical; conditions: 10 mM oxaloacetate, 5 mM MgCl2, pH 7.5, 30 °C
T4 construct: gene mdh_1; C-terminal His tag, start and stop codons deleted; recombinant in E. coli BL21 (DE3), Ni-NTA
T4 sequence (A0A096F047 2-329): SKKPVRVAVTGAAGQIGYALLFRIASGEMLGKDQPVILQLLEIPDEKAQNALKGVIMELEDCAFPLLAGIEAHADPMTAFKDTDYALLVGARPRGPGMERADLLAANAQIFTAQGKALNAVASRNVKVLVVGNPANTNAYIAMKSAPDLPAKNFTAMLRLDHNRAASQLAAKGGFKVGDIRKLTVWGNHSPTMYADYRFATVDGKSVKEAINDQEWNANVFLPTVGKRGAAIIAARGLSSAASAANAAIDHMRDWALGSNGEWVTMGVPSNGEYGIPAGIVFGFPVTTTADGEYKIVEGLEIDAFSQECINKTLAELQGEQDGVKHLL

[5] = target: T5, PobA (4HB 3-monooxygenase) (Comamonas testosteroni, UniProt B7WVQ9); experiment: NAD(P)H oxidation at […] nm; format: biochemical; conditions: 10 mM 4HB, 5 mM MgCl2, pH 7.5, 30 °C
T5 construct: gene CtesDRAFT_PD2627; N-terminal His tag with TEV site, start codon removed; recombinant in E. coli BL21 (DE3), Ni-NTA

Q: For `O=C(O)CCC(=O)C(=O)O` [αKG], which “% decrease in pyruvate consumption” value [1] is on record?
A: The value was ~ 35%.

Q: And the “relative activity (%)” value ([2]; allosteric inhibitor)?
A: Its value is “only high concentrations of αKG had a significant inhibitory impact on ME-2”.

Q: For `O=C(O)CCC(=O)O` [succinate], which “relative activity (%)” value ([2]; allosteric activator) is on record?
A: The value was “moderate activation in the presence of succinate and glutamate”.

Q: What about the “relative activity (%)” value [3] of the same molecule?
A: Its value is “moderate activation in the presence of succinate and glutamate”.

Q: How did the “NAD(P)H oxidation at 340 nm” value [4] turn out when `NC(=O)C1=CN([C@@H]2O[C@H](COP(=O)(O)OP(=O)(O)OC[C@H]3O[C@@H](n4cnc5c(N)ncnc54)[C@H](O)[C@@H]3O)[C@@H](O)[C@H]2O)C=CC1` [NADH] was run?
A: Its value is “NADH was the preferred cofactor for ME-2 and Mdh”.

Q: Which “NAD(P)H oxidation at 340 nm” value [5] does the source give for `NC(=O)C1=CN([C@@H]2O[C@H](COP(=O)(O)OP(=O)(O)OC[C@H]3O[C@@H](n4cnc5c(N)ncnc54)[C@H](OP(=O)(O)O)[C@@H]3O)[C@@H](O)[C@H]2O)C=CC1` [NADPH] here?
A: Its value is “NADPH was the cofactor for PobA and for ME-1, IDH1 and IDH2”.
